# Measurements reported in ChEMBL document CHEMBL1156829 (Proc Natl Acad Sci U S A, 2008).
# pEC50: −log10 of the molar value.
# Key:
# Plasmodium falciparum [1] = test: NOVARTIS: Inhibition of Plasmodium falciparum W2 (drug-resistant) proliferation in erythrocyte-based infection assay; type: functional, organism-based; details: Plasmodium falciparum, W2; read-out: EC50
# Plasmodium falciparum [2] = test: NOVARTIS: Inhibition of Plasmodium falciparum 3D7 (drug-susceptible) proliferation in erythrocyte-based infection assay; type: functional, organism-based; details: Plasmodium falciparum, 3D7
# [3] = NOVARTIS: Cytotoxicity against human hepatocellular carcinoma cell line (Huh7); type: toxicity, cell-based, Huh-7; details: Huh7 cells (hepatocellular carcinoma cell line)
Compound,pEC50 (Plasmodium falciparum [1]),pEC50 (Plasmodium falciparum [2]),CC50 [3]
C/N=C(\N)Nc1nc(C)c2cc(OC)ccc2n1,6.14,6.18,> 10000 nM
O=C(C[n+]1ccc(/C=N/O)cc1)NC12CC3CC(CC(C3)C1)C2,5.51,< 4.90,42200 nM
Nc1ccc(Nc2ccc(N)cc2)cc1,6.15,6.50,> 10000 nM
FC(F)(F)c1ccc(Nc2nnnc3ccccc23)cc1,5.14,5.11,> 100000 nM
CC1(C)Cc2c(oc3ncn(CCn4cnc5oc6c(c5c4=N)CC(C)(C)SC6)c(=N)c23)CS1,5.01,< 4.90,> 100000 nM
NC(=O)c1ccc2[nH]c3c(c2c1)CCCC3,< 5.15,< 4.90,> 100000 nM
CCCCCCN(C(=O)c1ccc(CCCCC)cc1)C(CC)c1nc2ccccc2c(=O)n1-c1ccccc1OC (configuration not stated),6.16,5.99,> 10000 nM
COc1cccc(-c2ccc(O)c(CNCCc3cccc(F)c3)c2)n1,6.14,5.96,> 10000 nM
Clc1ccc(CCNC2CCN(CCc3ccccc3)CC2)cc1,6.16,6.82,9600 nM
O=C(CC1SC(=Nc2ccccc2)NC1=O)Nc1cc(Cl)ccc1Cl (configuration not stated),< 5.15,< 4.90,> 100000 nM
COC(=O)c1ccc(Cn2cc(C=O)c3ccccc32)o1,< 6.15,< 5.90,> 10000 nM
CC(C)CNc1nc(NCCCN2CCCCC2C)ncc1C(=O)NCCc1ccccc1 (configuration not stated),6.14,6.42,> 10000 nM
c1ccc2c(NCCNc3c4ccccc4nc4ccccc34)c3ccccc3nc2c1,6.07,7.08,11800 nM
COc1ccc(Cn2cccc(C(=O)Nc3ccc(OC)cc3)c2=O)cc1,5.51,< 4.90,42500 nM
CCOCCCNC(=O)C1CCCN(S(=O)(=O)c2ccc(C)cc2)C1 (configuration not stated),< 6.14,< 6.18,> 10000 nM
CC(C)CNC(=O)c1cnc(NCCc2ccncc2)nc1NCCc1ccccc1,6.14,6.09,> 10000 nM
CCN1CCN(C(=O)CS(=O)(=O)Cc2nc(-c3cccc(OC)c3)oc2C)CC1,< 6.15,< 5.90,> 10000 nM
C=C1[C@@H](C)[C@H]2[C@H](Cc3ccccc3)NC(=O)[C@]23C(OC(C)=O)C=C[C@@](C)(O)C(=O)[C@@H](C)CC=C[C@H]3[C@@H]1O (some centres not stated),6.15,5.93,> 10000 nM
Cc1cc(C)cc(NC(=O)c2cc(-c3ccc(Cl)cc3)nc3ccccc23)c1,< 6.15,< 5.90,> 10000 nM
CCOC(=O)c1c(NC(=O)c2cccnc2)sc(C)c1CC,< 6.15,< 5.96,> 10000 nM
O=S(=O)(NCCCCNc1ccnc2cc(Cl)ccc12)c1ccc(F)cc1,6.15,6.47,> 10000 nM
CCOc1ccc(N=C2NC(=O)S/C2=C2/C(=O)Nc3ccc(Br)cc32)cc1,< 6.14,< 5.90,> 10000 nM
CCOC(=O)N1CCN(c2ccc(C(F)(F)F)cn2)CC1,5.14,< 4.90,> 100000 nM

Compound,pEC50 (Plasmodium falciparum [1]),pEC50 (Plasmodium falciparum [2]),CC50 [3]
Cc1cccc(C)c1N(CC(=O)NCc1ccco1)S(C)(=O)=O,6.14,6.07,> 10000 nM
Cc1oc2c(c1C(=O)NCC1CCCO1)C(=O)c1ccccc1C2=O (configuration not stated),6.32,5.93,6930 nM
CCc1ccc(NC(=O)CSc2nc(C)cc(C)c2C#N)cc1,< 6.16,< 5.90,> 10000 nM
CCN(CC(=O)N1CCc2cc(OC)c(OC)cc2C1C)C(=O)Nc1ccc(Br)cc1 (configuration not stated),< 6.16,< 5.90,> 10000 nM
Cc1cccc(Nc2ccccc2C(=O)OCC(=O)N2CC(=O)Nc3ccccc32)c1C,5.42,5.33,55100 nM
O=C1N(c2ccccc2)C[C@@H]2C[C@@H](c3ccc4nsnc4c3)N3CCC[C@@]123,6.19,6.05,9250 nM
CCCS(=O)(=O)N1CCC(CO)(Cc2ccccc2C(F)(F)F)CC1,6.16,5.90,> 10000 nM
O=C(Nn1c(SCc2cc(=O)n3ccccc3n2)nc2ccsc2c1=O)c1cccc(Br)c1,< 6.16,< 6.03,> 10000 nM
COc1cncc(-c2cncc(N3CCN(CCN(C)C)CC3)n2)c1,6.16,6.58,> 10000 nM
CC(C)CC(=O)OC1C(N2CCCCC2)c2c(ccc(/C=C/C(=O)N3CCCCC3)c2O)OC1(C)C (configuration not stated),6.01,6.04,> 10000 nM
COCCn1nnnc1C(c1cc2cc3c(cc2[nH]c1=O)OCCO3)N1CCC(O)CC1 (configuration not stated),6.01,< 5.90,> 10000 nM
CCCCSc1ncnc2c1c(-c1ccccc1)cn2-c1cccc(F)c1,< 6.01,< 5.90,> 10000 nM
O=C(Oc1ccc(-c2ccc(OC(=O)c3ccco3)cc2)cc1)c1ccco1,6.01,< 6.13,> 10000 nM
CCCNc1nc(OC(C(F)(F)F)C(F)(F)F)nc(OC(C(F)(F)F)C(F)(F)F)n1,< 6.15,< 5.80,> 10000 nM
Cc1c(Cl)cccc1-n1c(C(C)N(CCc2ccccc2)C(=O)COc2ccccc2)nc2ccccc2c1=O (configuration not stated),6.15,6.21,> 10000 nM
CCCCCCN(C(=O)c1cccc(F)c1)C(CC)c1nc2ccccc2c(=O)n1-c1ccccc1OC (configuration not stated),6.29,5.97,> 7320 nM
Fc1ccc2nc(Nc3nc(-c4ccccn4)cs3)sc2c1,6.67,5.90,3040 nM
CCCCCCCC(=O)N1CCN(C(=O)C(NC(=O)Nc2ccc(Cl)cc2Cl)C(C)CC)CC1 (configuration not stated),6.15,< 7.39,> 10000 nM
COc1cc(/C=C2/SC(=Nc3ccccc3)NC2=O)ccc1OC(=O)c1ccccc1,6.16,< 6.03,> 10000 nM
O=C(Nc1ccc(-c2cn3ccsc3n2)cc1)c1ccc(S(=O)(=O)N2CCCCCC2)cc1,5.91,6.20,17600 nM
CCOc1ccc(CN(C(=O)COc2ccc(Cl)cc2)C(C)CCCN(CC)CC)cc1 (configuration not stated),5.88,6.41,18900 nM
CC(C)CNc1nc(NCCCn2ccnc2)ncc1C(=O)NCCc1ccccc1,6.16,6.56,> 10000 nM
COc1ccc(CCNc2nc(NCCCN3CCCCC3C)ncc2C(=O)NCC(C)C)cc1OC (configuration not stated),< 6.15,5.94,> 10000 nM

Compound,pEC50 (Plasmodium falciparum [1]),pEC50 (Plasmodium falciparum [2]),CC50 [3]
O=C(NCCCN1CCCC1=O)c1cnc(N2CCN(Cc3ccccc3)CC2)nc1NCCc1ccccc1,6.16,6.24,> 10000 nM
Cc1ccc(S(=O)(=O)N=C2C=C(Sc3nnc[nH]3)C(=O)c3ccccc32)cc1,6.05,5.81,12800 nM
COc1cc(C(=O)NC(c2ccc3c(c2)OCO3)c2cc(Cl)c3cccnc3c2O)cc(OC)c1OC (configuration not stated),6.16,6.37,> 10000 nM
Clc1cc(C=NNC2=NCCCN2)cc(Cl)n1,< 6.14,6.61,> 10000 nM
N#Cc1cc(C#N)c(N2CCN(c3cccc(Cl)n3)CC2)nc1N,6.15,6.10,> 10000 nM
CN(C)c1ccc(Nc2nc(NCC3CCCO3)c3ccccc3n2)cc1 (configuration not stated),6.09,6.07,11400 nM
Cc1ccc(CN2C3CCCC2CC(NC(=O)Nc2cccc(F)c2)C3)cc1 (configuration not stated),6.16,6.05,> 10000 nM
CCCN1CCC(N2C[C@@H](NC3CCN(CCc4ccccc4)CC3)C[C@H]2C(=O)NCCc2ccc3c(c2)OCO3)CC1,6.10,7.06,11100 nM
CCC(C)(C)c1ccc(OCCOCC[n+]2ccccc2)c(C(C)(C)CC)c1,6.07,6.02,12200 nM
CCCCNC(=O)C(c1cccc(OC)c1)N1C(=O)c2cc(OCCCC)ccc2NC(=O)C1CO (configuration not stated),6.78,6.69,> 2370 nM
CCOc1cc(Br)cc(/C=C2\NC(=S)NC2=O)c1O,< 6.01,< 5.90,> 10000 nM
O=C(O)/C=C\C(=O)N(C1CCCCC1)C1CCCCC1,< 6.15,< 5.90,> 10000 nM
CCc1cc(=O)n(C)c(SC(C)C(=O)Nc2ccc(F)cc2)n1 (configuration not stated),6.14,6.12,> 10000 nM
CS(=O)(=O)c1ccccc1S(=O)(=O)N1CCC(NC(=O)c2ccccc2Cl)(C(=O)O)CC1,< 6.14,< 5.90,> 10000 nM
CN=C1S/C(=C\c2ccc(OCC(=O)O)c(OC)c2)C(=O)N1C,< 6.15,< 5.90,> 10000 nM
Nc1c(C(=O)NCc2ccccc2)nnn1Cc1ccc(F)cc1Cl,6.14,< 6.07,> 10000 nM
CCCSCCCNC(=O)c1oc2c(c1C)-c1[nH]ncc1CC2,< 6.14,< 5.94,> 10000 nM
O=C(COC(c1ccccc1)c1c(Cl)cncc1Cl)N1CCC(c2ccccn2)C1 (configuration not stated),5.16,< 4.90,> 100000 nM
CC(=O)Nc1cc(C(F)(F)F)cc(C(F)(F)F)c1,6.15,5.88,> 10000 nM
COc1cc(OC)c(N(C)S(=O)(=O)c2cccc(C(=O)OCC(=O)Nc3ccccc3C(C)=O)c2)cc1Cl,5.14,5.08,> 100000 nM
Cc1ccc(CN2CCC(O)(c3ccc4oc(C(=O)NCCc5cccc(F)c5)cc4c3)CC2)cc1,5.52,5.38,43500 nM
Cc1ccc(S(=O)(=O)c2c(COC(=O)c3cccc(C)c3)c(-c3ccccc3)nn2C)cc1,5.16,5.08,> 100000 nM
O=c1[nH]nc(SCc2c(F)cccc2[N+](=O)[O-])c(=O)[nH]1,< 6.16,< 5.90,> 10000 nM
